Laboratory results published in the supplement of paper PMC8612539.

Tested on: Histophilus somni
Assay: minimum inhibitory concentration (MIC)
Procedure: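 Broth microdilution MIC (Sensititre BOPO7F bovine plate, CLSI methods) of 19 antimicrobials against field isolates of P. multocida, M. haemolytica, H. somni (deep nasopharyngeal swabs) and E. coli, Enterococcus spp. (rectal swabs) from weaned dairy heifers. Incubation 16-24 h at 35 C. MIC is the lowest concentration preventing visible growth. Values with <= or > lie at the tested range limits. Trimethoprim-sulfamethoxazole is given as the trimethoprim component of a 1:19 mixture.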

COc1cc(NS(=O)(=O)c2ccc(N)cc2)nc(OC)n1 [sulfadimethoxine]
Conditions | minimum inhibitory concentration [mg/L]
isolate (source animal id): 3 | ≤ 256
isolate (source animal id): 4 | ≤ 256
isolate (source animal id): 7 | ≤ 256
isolate (source animal id): 14 | ≤ 256
isolate (source animal id): 15 | ≤ 256
isolate (source animal id): 17 | ≤ 256
isolate (source animal id): 18 | ≤ 256
isolate (source animal id): 20 | ≤ 256
isolate (source animal id): 23 | > 256
isolate (source animal id): 45 | > 256
isolate (source animal id): 53 | > 256
isolate (source animal id): 83 | ≤ 256
isolate (source animal id): 88 | ≤ 256
isolate (source animal id): 92 | ≤ 256
isolate (source animal id): 93 | ≤ 256
isolate (source animal id): 99 | ≤ 256
isolate (source animal id): 100 | ≤ 256
isolate (source animal id): 105 | ≤ 256
isolate (source animal id): 107 | ≤ 256
isolate (source animal id): 108 | ≤ 256
isolate (source animal id): 109 | ≤ 256
isolate (source animal id): 110 | ≤ 256
isolate (source animal id): 117 | ≤ 256
isolate (source animal id): 121 | ≤ 256
isolate (source animal id): 123 | ≤ 256
isolate (source animal id): 124 | ≤ 256
isolate (source animal id): 127 | ≤ 256
isolate (source animal id): 128 | ≤ 256
isolate (source animal id): 130 | ≤ 256
isolate (source animal id): 132 | ≤ 256
isolate (source animal id): 135 | ≤ 256
isolate (source animal id): 140 | ≤ 256
isolate (source animal id): 141 | ≤ 256
isolate (source animal id): 142 | ≤ 256
isolate (source animal id): 144 | ≤ 256
isolate (source animal id): 146 | ≤ 256
isolate (source animal id): 147 | ≤ 256
isolate (source animal id): 151 | ≤ 256
isolate (source animal id): 153 | ≤ 256
isolate (source animal id): 154 | ≤ 256
isolate (source animal id): 156 | ≤ 256
isolate (source animal id): 157 | ≤ 256
isolate (source animal id): 176 | > 256
isolate (source animal id): 183 | > 256
isolate (source animal id): 186 | > 256
isolate (source animal id): 196 | > 256
isolate (source animal id): 198 | > 256
isolate (source animal id): 200 | > 256
isolate (source animal id): 206 | > 256
isolate (source animal id): 208 | > 256
isolate (source animal id): 210 | > 256
isolate (source animal id): 212 | ≤ 256
isolate (source animal id): 215 | > 256
isolate (source animal id): 216 | > 256
isolate (source animal id): 218 | ≤ 256
isolate (source animal id): 219 | > 256
isolate (source animal id): 224 | > 256
isolate (source animal id): 228 | > 256
isolate (source animal id): 230 | > 256
isolate (source animal id): 233 | > 256
isolate (source animal id): 238 | > 256
isolate (source animal id): 239 | ≤ 256
isolate (source animal id): 241 | > 256
isolate (source animal id): 242 | > 256
isolate (source animal id): 243 | ≤ 256
isolate (source animal id): 245 | > 256
isolate (source animal id): 246 | > 256
isolate (source animal id): 247 | > 256
isolate (source animal id): 248 | ≤ 256
isolate (source animal id): 250 | > 256
isolate (source animal id): 251 | > 256
isolate (source animal id): 252 | > 256
isolate (source animal id): 254 | > 256
isolate (source animal id): 258 | ≤ 256
isolate (source animal id): 259 | > 256
isolate (source animal id): 262 | ≤ 256
isolate (source animal id): 264 | ≤ 256
isolate (source animal id): 265 | > 256
isolate (source animal id): 266 | > 256
isolate (source animal id): 267 | > 256
isolate (source animal id): 269 | ≤ 256
isolate (source animal id): 271 | > 256
isolate (source animal id): 272 | > 256
isolate (source animal id): 274 | ≤ 256
isolate (source animal id): 276 | ≤ 256
isolate (source animal id): 278 | > 256
isolate (source animal id): 280 | > 256
isolate (source animal id): 281 | > 256
isolate (source animal id): 283 | ≤ 256
isolate (source animal id): 288 | ≤ 256
isolate (source animal id): 291 | ≤ 256
isolate (source animal id): 292 | > 256
isolate (source animal id): 296 | ≤ 256
isolate (source animal id): 306 | > 256
isolate (source animal id): 336 | ≤ 256
isolate (source animal id): 337 | ≤ 256
isolate (source animal id): 341 | ≤ 256
